Laboratory results taken from patent publication EP1345943B1, “INHIBITORS OF PAPILLOMA VIRUS” (BOEHRINGER INGELHEIM (CANADA) LTD., priority 2000, dated 2002).

Biological target: E1-E2-DNA complex (Human papillomavirus 11, UniProt P04015)
Assay: E2-dependent E1 DNA binding assay (E1-E2 DNA assay)
Details: E1-E2 DNA assay of Example 11, HPV-11
Description: This particular assay determines the ability of a test compound to inhibit the activity (IC50) of HPV-11 DNA replication. More specifically, in the assay described herein, the inhibitory activity of the test compound is evaluated based on its ability to interfere with the E1-E2-DNA origin of replication interaction, thereby inhibiting initiation of viral DNA replication.
This assay was modeled on a similar assay for SV40 T Antigen described by McKay (J. Mol. Biol., 1981,145:471). A 400bp radiolabeled DNA probe, containing the -HPV-11 origin of replication (Chiang et al.., 1992, Proc. Natl.-Acad. Sci. USA 89:5799) was produced by pcr, using plasmid pBluescript™ SK encoding the origin (nucleotides 7886-61 of the HPV-11 genome in unique BAMH1 site) as template and primers flanking the origin. Radiolabel was incorporated as [33p]dCTP. Binding assay buffer consisted of: 20 mM Tris pH 7.6, 100 mM NaCI, 1 mM DTT, 1 mM EDTA.
Other reagents used were protein A-SPA beads (type II, Amersham) and K72 rabbit polyclonal antiserum, raised against a peptide corresponding to the C-terminal 14 amino acids of HPV-11 E1. Following the protocol from Amersham, one bottle of beads was mixed with 25 mL of binding assay buffer. For the assay, a saturating amount of K72 antiserum was added to the beads and the mixture was incubated for 1 h, washed with one volume of binding assay buffer, and then resuspended in the same volume of fresh binding assay buffer. Binding reactions contained 8 ng of E2, approximately 100-200 ng of purified E1, and 0.4 ng of radiolabeled probe in a total of 80 µL of binding assay buffer. After 1 h at room temperature, 25 µL of K72 antibody-SPA bead suspension was added to with the binding reaction and mixed. After an additional hour of incubation at room temperature, the reactions were centrifuged briefly to pellet the beads and the extent of complex formation was determined by scintillation counting on a Packard TopCount™. Typically, the signal for reactions containing E1 and E2 was 20-30 fold higher than the background observed when either E1, E2, or both was omitted.

Sequence of E1-E2-DNA complex (P04015 whole entry, one chain of several): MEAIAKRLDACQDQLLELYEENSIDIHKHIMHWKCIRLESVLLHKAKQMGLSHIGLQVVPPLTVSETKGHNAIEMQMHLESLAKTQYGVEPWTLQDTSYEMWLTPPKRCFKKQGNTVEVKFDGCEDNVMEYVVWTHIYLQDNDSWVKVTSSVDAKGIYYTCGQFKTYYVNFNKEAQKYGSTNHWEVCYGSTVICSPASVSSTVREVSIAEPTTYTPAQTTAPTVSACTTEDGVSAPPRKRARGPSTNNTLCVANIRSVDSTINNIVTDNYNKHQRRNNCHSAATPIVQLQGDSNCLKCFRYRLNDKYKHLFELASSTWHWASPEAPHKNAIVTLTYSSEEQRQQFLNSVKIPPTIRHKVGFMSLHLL

| SMILES | IC50 [µM] |
| --- | --- |
| Cc1ccc2c(c1)C1(O)OC(=O)C3C(C(=O)NCCc4ccccc4Cl)C(c4ccc(Br)c(Br)c4)OC31C2=O (single isomer, unassigned) [Compound B1007] | < 0.5 |
| Cc1cc2c(cc1F)C(=O)C13OC(c4ccc(Br)c(Br)c4)C(C(=O)Nc4ccc(N5CCOCC5)cc4)C1C(=O)OC23O (single isomer, unassigned) [Compound B1008] | < 0.5 |
| CC(=O)c1ccc(NC(=O)C2C(c3ccc(Cl)c(Cl)c3)OC34C(=O)c5cc(C)sc5C3(O)OC(=O)C24)cc1 (single isomer, unassigned) [Compound D1001] | < 0.5 |
| Cc1cc2c(s1)C1(O)OC(=O)C3C(C(=O)Nc4ccc(N5CCOCC5)cc4)C(c4ccc(Br)c(Br)c4)OC31C2=O (single isomer, unassigned) [Compound D1002] | < 0.5 |
| Cc1cc2c(s1)C1(O)OC(=O)C3C(C(=O)Nc4ccc(CNC(=O)OC(C)(C)C)cc4)C(c4ccc(Br)c(Br)c4)OC31C2=O (single isomer, unassigned) [Compound D1003] | < 0.5 |
| CC(=O)NCc1ccc(NC(=O)C2C(c3ccc(Br)c(Br)c3)OC34C(=O)c5cc(C)sc5C3(O)OC(=O)C24)cc1 (single isomer, unassigned) [Compound D1004] | < 0.5 |
| O=C(Nc1ccc(N2CCOCC2)cc1)C1C(c2ccc(Br)c(Br)c2)OC2(C(=O)c3ccccc3C2=O)C1C(=O)O (stereo not shown) [10,001] | 0.5 to 5 |
| O=C(Nc1ccc2c(c1)OCO2)C1C(c2ccc(Cl)cc2)OC2(C(=O)c3ccccc3C2=O)C1C(=O)O (stereo not shown) [Compound 1001] | 5 to 50 |
| O=C(Nc1ccc2c(c1)OCO2)C1C(c2ccc(Cl)c(Cl)c2)OC2(C(=O)c3ccccc3C2=O)C1C(=O)O (stereo not shown) [Compound 1002] | < 0.5 |
| O=C(Nc1ccc(F)cc1)C1C(c2ccc(Cl)cc2)OC2(C(=O)c3ccccc3C2=O)C1C(=O)O (stereo not shown) [Compound 1003] | 5 to 50 |
| COc1ccc(NC(=O)C2C(c3ccc(Cl)cc3)OC3(C(=O)c4ccccc4C3=O)C2C(=O)O)cc1OC (stereo not shown) [Compound 1004] | 5 to 50 |
| CC(=O)c1ccc(NC(=O)C2C(c3ccc(Cl)cc3)OC3(C(=O)c4ccccc4C3=O)C2C(=O)O)cc1 (stereo not shown) [Compound 1005] | 5 to 50 |
| O=C(Nc1cccc(Cl)c1)C1C(c2ccc(Cl)cc2)OC2(C(=O)c3ccccc3C2=O)C1C(=O)O (stereo not shown) [Compound 1006] | 5 to 50 |
| Cc1ccc(NC(=O)C2C(c3ccc(Cl)cc3)OC3(C(=O)c4ccccc4C3=O)C2C(=O)O)cc1 (stereo not shown) [Compound 1007] | 5 to 50 |
| CC(C)c1ccc(C2OC3(C(=O)c4ccccc4C3=O)C(C(=O)O)C2C(=O)Nc2ccc3c(c2)OCO3)cc1 (stereo not shown) [Compound 1008] | 5 to 50 |
| O=C(Nc1ccc(F)cc1F)C1C(c2ccc(Cl)cc2)OC2(C(=O)c3ccccc3C2=O)C1C(=O)O (stereo not shown) [Compound 1009] | 5 to 50 |
| O=C(Nc1ccc(Cl)cc1)C1C(c2ccc(Cl)cc2)OC2(C(=O)c3ccccc3C2=O)C1C(=O)O (stereo not shown) [Compound 1010] | 5 to 50 |
| O=C(Nc1ccccc1)C1C(c2ccc(Cl)cc2)OC2(C(=O)c3ccccc3C2=O)C1C(=O)O (stereo not shown) [Compound 1011] | 5 to 50 |
| Cc1cccc(NC(=O)C2C(c3ccc(Cl)cc3)OC3(C(=O)c4ccccc4C3=O)C2C(=O)O)c1 (stereo not shown) [Compound 1012] | 5 to 50 |
| O=C(Nc1ccc2c(c1)CCC2)C1C(c2ccc(Cl)cc2)OC2(C(=O)c3ccccc3C2=O)C1C(=O)O (stereo not shown) [Compound 1013] | 5 to 50 |
| O=C(Nc1ccc(C(F)(F)F)cc1)C1C(c2ccc(Cl)cc2)OC2(C(=O)c3ccccc3C2=O)C1C(=O)O (stereo not shown) [Compound 1014] | 5 to 50 |
| O=C(Nc1ccc2c(c1)OCO2)C1C(c2cccc(Cl)c2)OC2(C(=O)c3ccccc3C2=O)C1C(=O)O (stereo not shown) [Compound 1015] | 0.5 to 5 |
| O=C(Nc1ccc2c(c1)OCO2)C1C(c2ccc(C(F)(F)F)cc2)OC2(C(=O)c3ccccc3C2=O)C1C(=O)O (stereo not shown) [Compound 1016] | 5 to 50 |
| COC(=O)C1C(C(=O)Nc2ccc3c(c2)OCO3)C(c2ccc(Cl)cc2)OC12C(=O)c1ccccc1C2=O (stereo not shown) [Compound 1017] | 5 to 50 |
| Cc1cccc(C2OC3(C(=O)c4ccccc4C3=O)C(C(=O)O)C2C(=O)Nc2ccc3c(c2)OCO3)c1 (stereo not shown) [Compound 1018] | 5 to 50 |
| O=C(Nc1ccc2c(c1)OCO2)C1C(c2ccc(Cl)cc2)OC2(C(=O)c3cccc(F)c3C2=O)C1C(=O)O (stereo not shown) [Compound 1019] | 5 to 50 |
| O=C(Nc1ccc2c(c1)OCO2)C1C(c2cc(Cl)cc(Cl)c2)OC2(C(=O)c3ccccc3C2=O)C1C(=O)O (stereo not shown) [Compound 1020] | 5 to 50 |
| CC(=O)c1ccc(NC(=O)C2C(c3ccc(Cl)c(Cl)c3)OC3(C(=O)c4ccccc4C3=O)C2C(=O)O)cc1 (stereo not shown) [Compound 1021] | < 0.5 |

| SMILES | IC50 [µM] |
| --- | --- |
| Cc1ccc(C2OC3(C(=O)c4ccccc4C3=O)C(C(=O)O)C2C(=O)Nc2ccc3c(c2)OCO3)cc1C (stereo not shown) [Compound 1024] | 0.5 to 5 |
| CC(C)(C)c1ccc(NC(=O)C2C(c3ccc(Cl)c(Cl)c3)OC3(C(=O)c4ccccc4C3=O)C2C(=O)O)cc1 (stereo not shown) [Compound 1025] | 0.5 to 5 |
| Cc1ccc2nc(-c3ccc(NC(=O)C4C(c5ccc(Cl)c(Cl)c5)OC5(C(=O)c6ccccc6C5=O)C4C(=O)O)cc3)sc2c1 (stereo not shown) [Compound 1028] | < 0.5 |
| O=C(Nc1ccc2c(c1)OCO2)C1C(c2ccc(Cl)c(F)c2)OC2(C(=O)c3ccccc3C2=O)C1C(=O)O (stereo not shown) [Compound 1029] | 0.5 to 5 |
| O=C(Nc1ccc2c(c1)OCO2)C1C(c2ccc(F)c(Cl)c2)OC2(C(=O)c3ccccc3C2=O)C1C(=O)O (stereo not shown) [Compound 1030] | 0.5 to 5 |
| O=C(Nc1ccc2c(c1)OCO2)C1C(c2cccc(C(F)(F)F)c2)OC2(C(=O)c3ccccc3C2=O)C1C(=O)O (stereo not shown) [Compound 1031] | 0.5 to 5 |
| CC(=O)c1ccc(NC(=O)C2C(c3cccc(Cl)c3)OC3(C(=O)c4ccccc4C3=O)C2C(=O)O)cc1 (stereo not shown) [Compound 1032] | 0.5 to 5 |
| CSc1ccc(NC(=O)C2C(c3ccc(Cl)c(Cl)c3)OC3(C(=O)c4ccccc4C3=O)C2C(=O)O)cc1 (stereo not shown) [Compound 1033] | 0.5 to 5 |
| O=C(Nc1ccc(N2CCOCC2)cc1)C1C(c2ccc(Cl)c(Cl)c2)OC2(C(=O)c3ccccc3C2=O)C1C(=O)O (stereo not shown) [Compound 1034] | < 0.5 |
| CC(=O)Nc1ccc(NC(=O)C2C(c3ccc(Cl)c(Cl)c3)OC3(C(=O)c4ccccc4C3=O)C2C(=O)O)cc1 (stereo not shown) [Compound 1035] | < 0.5 |
| CC(C)NC(=O)C1C(c2ccc(Cl)c(Cl)c2)OC2(C(=O)c3ccccc3C2=O)C1C(=O)O (stereo not shown) [Compound 1036] | 0.5 to 5 |
| Cc1ccc2c(c1)C(=O)C1(OC(c3ccc(Cl)c(Cl)c3)C(C(=O)Nc3ccc4c(c3)OCO4)C1C(=O)O)C2=O (stereo not shown) [Compound 1037] | 0.5 to 5 |
| O=C(Nc1ccc2c(c1)OCO2)C1C(c2ccc(I)cc2)OC2(C(=O)c3ccccc3C2=O)C1C(=O)O (stereo not shown) [Compound 1039] | 0.5 to 5 |
| O=C(Nc1cc2ccccc2cn1)C1C(c2ccc(Cl)c(Cl)c2)OC2(C(=O)c3ccccc3C2=O)C1C(=O)O (stereo not shown) [Compound 1040] | 0.5 to 5 |
| Cc1cccc2c1C(=O)C1(OC(c3ccc(Cl)c(Cl)c3)C(C(=O)Nc3ccc4c(c3)OCO4)C1C(=O)O)C2=O (stereo not shown) [Compound 1041] | 0.5 to 5 |
| Cc1cccc2c1C(=O)C1(OC(c3ccc(Cl)c(Cl)c3)C(C(=O)Nc3ccc4c(c3)OCO4)C1C(=O)O)C2=O (stereo not shown) [Compound 1042] | 0.5 to 5 |
| O=C(NN1CCOCC1)C1C(c2ccc(Cl)c(Cl)c2)OC2(C(=O)c3ccccc3C2=O)C1C(=O)O (stereo not shown) [Compound 1043] | 0.5 to 5 |
| CC(=O)c1ccc(NC(=O)C2C(c3cccc(Cl)c3)OC3(C(=O)c4ccccc4C3=O)C2C(=O)O)cc1 (stereo not shown) [Compound 1044] | 5 to 50 |
| O=C(Nc1ccc2c(c1)OCO2)C1C(c2ccc(C(F)(F)F)c(F)c2)OC2(C(=O)c3ccccc3C2=O)C1C(=O)O (stereo not shown) [Compound 1045] | 0.5 to 5 |
| CC(C)(C)NC(=O)C1C(c2ccc(Cl)c(Cl)c2)OC2(C(=O)c3ccccc3C2=O)C1C(=O)O (stereo not shown) [Compound 1046] | 0.5 to 5 |
| O=C(Nc1ccc2c(c1)OCO2)C1C(c2ccc(Cl)c(Cl)c2)OC2(C(=O)c3cccc(F)c3C2=O)C1C(=O)O (stereo not shown) [Compound 1048] | 0.5 to 5 |
| O=C(Nc1ccc(Oc2ccccc2)cc1)C1C(c2ccc(Cl)c(Cl)c2)OC2(C(=O)c3ccccc3C2=O)C1C(=O)O (stereo not shown) [Compound 1049] | 0.5 to 5 |
| O=C(Nc1ccc2c(c1)OCO2)C1C(c2ccc(Cl)c(Cl)c2)OC2(C(=O)c3cccc(F)c3C2=O)C1C(=O)O (stereo not shown) [Compound 1051] | 0.5 to 5 |
| O=C(Nc1ccc(-c2csnn2)cc1)C1C(c2ccc(Cl)c(Cl)c2)OC2(C(=O)c3ccccc3C2=O)C1C(=O)O (stereo not shown) [Compound 1052] | < 0.5 |
| CS(=O)(=O)c1ccc(NC(=O)C2C(c3ccc(Cl)c(Cl)c3)OC3(C(=O)c4ccccc4C3=O)C2C(=O)O)cc1 (stereo not shown) [Compound 1053] | 0.5 to 5 |
| O=C(Nc1ccc(C2CCCCC2)cc1)C1C(c2ccc(Cl)c(Cl)c2)OC2(C(=O)c3ccccc3C2=O)C1C(=O)O (stereo not shown) [Compound 1054] | < 0.5 |
| CCc1ccc(NC(=O)C2C(c3ccc(Cl)c(Cl)c3)OC3(C(=O)c4ccccc4C3=O)C2C(=O)O)cc1 (stereo not shown) [Compound 1055] | 0.5 to 5 |
